# Experimental data reported in publication PMC7583046, “The Paralogue of the Intrinsically Disordered Nuclear Protein 1 Has a Nuclear Localization Sequence that Binds to Human Importin α3” (International Journal of Molecular Sciences, 2020).
# Tests used:
# [1] = target: T1, human importin α3 (Impα3) (Homo sapiens, UniProt O00629); experiment: Isothermal titration calorimetry, binding to Impα3; settings: Tris 50 mM pH 8, 298 K
# T1 construct: Human importin α3 isoform (residues 1–521); His-tag (N); made in house; host or cells: E. coli BL21 (DE3)
# T1 sequence (O00629 1-521): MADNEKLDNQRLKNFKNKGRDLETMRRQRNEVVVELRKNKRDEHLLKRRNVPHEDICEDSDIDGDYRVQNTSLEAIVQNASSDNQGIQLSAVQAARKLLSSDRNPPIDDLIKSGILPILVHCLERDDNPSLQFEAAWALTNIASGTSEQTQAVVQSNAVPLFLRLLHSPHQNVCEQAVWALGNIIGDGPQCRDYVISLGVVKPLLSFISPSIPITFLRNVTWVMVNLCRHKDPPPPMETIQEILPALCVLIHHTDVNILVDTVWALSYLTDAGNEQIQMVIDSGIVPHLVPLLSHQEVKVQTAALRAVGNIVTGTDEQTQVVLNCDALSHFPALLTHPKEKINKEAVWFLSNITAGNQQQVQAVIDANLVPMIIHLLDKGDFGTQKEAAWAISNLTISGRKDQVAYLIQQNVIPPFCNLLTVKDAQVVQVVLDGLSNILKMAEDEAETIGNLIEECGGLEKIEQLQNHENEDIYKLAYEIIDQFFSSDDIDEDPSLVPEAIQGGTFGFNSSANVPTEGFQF
# Text: Figure 4 Binding of NLS-NUNPR1L to both importin species: (A) Titration curve monitoring the changes of Impα3 fluorescence at 340 nm in the presence of NLS-NUPR1L, after excitation at 280 nm. (B) Titration curve monitoring the changes of ∆Impα3 fluorescence at 340 nm in the presence of NLS-NUPR1L, after excitation at 280 nm. […] (C) Calorimetric binding isotherms (ligand normalized heat effect per injection as a function of the ligand/protein molar ratio) for the interaction of NLS-NUPR1L with Impα3 (left) and ∆Impα3 (right) are shown, with the thermogram (raw thermal power data as a function of time) at the top of each panel. Binding parameters were estimated by non-linear least squares regression data analysis of the interaction isotherms applying a single ligand binding site model implemented in Origin 7.0. (OriginLab, Northampton, MA, USA).
# The experimental set-up and data processing of ITC experiments have been described previously. […] The temperature for all experiments was 298 K. The experiments were analyzed applying a model considering a single ligand binding site (1:1 stoichiometry for the NLS-NUPR1L/Impα3 (or ∆Impα3) interaction) implemented in Origin 7.0 (OriginLab, Northampton, MA, USA).
# Impα3 [2] = settings: 50 mM phosphate pH 7.0, 298 K; NLS-NUPR1L 10 μM, importin 4 μM
# Method: (§1) Fluorescence spectra were collected on a Cary Varian spectrofluorometer (Agilent, Santa Clara, CA, USA), interfaced with a Peltier unit. All experiments were carried out at 298 K. Following the standard protocols used in our laboratories, the samples were prepared the day before and left overnight at 278 K; before experiments, samples were left for 1 h at 298 K. A 1 cm pathlength quartz cell (Hellma, Kruibeke, Belgium) was used. The concentration of NLS-NUPR1L was 10 μM and those of both importins were 4 μM. Samples containing the isolated peptide, the isolated importin species, and a mixture of both (at those indicated concentrations) were prepared. Experiments were acquired in 50 mM phosphate buffer (pH 7.0). For the experiments with intact NUPR1L, a concentration of 15 μM (in protomer units) was used and that of each importin was 5 μM.
# (§2) Protein samples were excited either at 280 or 295 nm. The other experimental parameters and the buffers used have been described elsewhere. […]
# (§3) Far-UV CD spectra were collected on a Jasco J810 spectropolarimeter (Jasco, Tokyo, Japan) with a thermostated cell holder, and interfaced with a Peltier unit at 298 K. The instrument was periodically calibrated with (+)-10-camphorsulphonic acid. […] The concentration of each polypeptide (importin species and either NLS-NUPR1L or intact NUPR1L) was the same as that used in the fluorescence experiments (Section 4.4). […]
# ∆Impα3 = settings: 50 mM phosphate pH 7.0, 298 K; NUPR1L 15 μM with importin 5 μM, or NLS-NUPR1L 10 μM with importin 4 μM
# Method: as §1, §2, §3
# Impα3 [3] = settings: 35 μM peptide, pH 7.2, 50 mM deuterated Tris, 1-1 echo sequence
# Method: The NMR experiments were acquired at 283 K on a Bruker Avance spectrometer (Bruker GmbH, Karlsruhe, Germany), equipped with a triple resonance probe and z-pulse field gradients. All experiments with NLS-NUPR1L were carried out at pH 7.2, 50 mM deuterated Tris buffer (not corrected for isotope effects). The spectra were calibrated with TSP ((trimethylsilyl)-2,2,3,3-tetradeuteropropionic acid), by considering pH-dependent changes of its chemical-shifts; probe temperature was calibrated with methanol.
# Measurements of the T2 (transverse relaxation time) provide a convenient method to determine the molecular mass of a macromolecule, as the correlation time, τc, is approximately equal to 1/(5 × T2). We measured the T2 of one of the indole protons (Section 2.2.1) for NLS-NUPR1L (at 35 μM concentration) in isolation and in the presence of Impα3 (at a final concentration of 7 μM) with the 1-1 echo sequence. The calculation of the T2 was carried out as described.
# [4] = Aggregation / self-association tendency; format: physicochemical; settings: isolated peptide, refers to Section 2.2.1
substance,measurement,setting,value
Ac-RTRREQALRTNWPAPGGHERKVAQ-NH2 [NLS-NUPR1L],"n, stoichiometry (ITC), Impα3",[1],1.04 ± 0.05
same,"∆H (ITC), Impα3",[1],-3.1 ± 0.5 kcal/mol
same,spectral changes upon binding to Impα3 (fluorescence and CD),Impα3 [2],there were changes in the spectra upon addition of NLS-NUPR1L to each of the importin species
same,spectral changes upon binding to ∆Impα3 (fluorescence and/or far-UV CD),∆Impα3,there were changes in the spectra upon addition of NLS-NUPR1L to each of the importin species
same,"T2 of most up-field indole signal, in the presence of Impα3","Impα3 [3]; 7 μM Impα3, 283 K",36.7 ms
same,"T2 of most up-field indole signal, isolated peptide",Impα3 [3]; 283 K,62.2 ms
same,tendency to aggregate,[4],did not have any tendency to aggregate
